Experimental data taken from patent US4296105A, “Derivatives of doxorubicine, their preparation and use” (Institut International de Pathologie Cellulaire et …, priority 1978, dated 1981).

Legend:
leukemia L1210 = test: Antitumoral activity in DBA2 mice grafted subcutaneously with leukemia L1210 cells; assay type: in vivo
Method: The tests were made with mice weighing 20 to 22 g grafted subcutaneously with 10^6 cells of leukemia L1210 and treated with daily doses between 5 and 60 mg/kg i.v.
At equitoxic dose, doxorubicine induces 78% ILS, 16% of surviving animals at long term and an average tumoral volume of 24 mm^3 on day 12.

[1] = Acute toxicity in mice (50% lethal dose, i.v. injection 2 consecutive days); assay type: in vivo
[2] = DBA2 mice, L1210 s.c., equitoxic dose
[3] = DBA2 mice 20-22 g, 10^6 L1210 cells s.c., i.v. days 1 and 2, 48 mg/kg a day

SMILES | increase in life span (ILS) (leukemia L1210; [2]) [%] | surviving animals at long term (leukemia L1210; [2]) [%] | average tumoral volume on day 12 (leukemia L1210; [2]) [mm^3] | LD50 ([1]; mouse, in vivo, iv) [mg/kg] | LD50 relative to doxorubicine (times more than for doxorubicine) ([1]; versus doxorubicine) [times] | increase in life span (ILS) (leukemia L1210; [3]) [%] | surviving animals at long term (leukemia L1210; [3]) [%] | average tumoral volume on day 12 (leukemia L1210; [3]) [mm^3]
COc1cccc2c1C(=O)c1c(O)c3c(c(O)c1C2=O)C[C@@](O)(C(=O)CO)C[C@@H]3O[C@H]1C[C@H](N)[C@H](O)[C@H](C)O1 [doxorubicine] | 78 | 16 | 24 |  |  |  |  | 
COc1cccc2c1C(=O)c1c(O)c3c(c(O)c1C2=O)C[C@@](O)(C(=O)CO)C[C@@H]3O[C@H]1C[C@H](NC(=O)[C@@H](N)CC(C)C)[C@H](O)[C@H](C)O1 [N-(L-leucyl)doxorubicine] |  |  |  | ~67 | 6 | 131 | 33 | 0.01
